Like-named read-outs stand apart in the source and are kept apart here.
How the values were obtained:
Format in all cases: cell-based, Phaffia rhodozyma
[1] = tested on: P. rhodozyma; assay: Inhibitors incorporated into yeast malt extract medium: killing, growth and colony colour; details: nicotine 1 mM, imidazole 4 mM, 2-methylimidazole 1 mM, morpholine 10 mM
[2] = tested on: P. rhodozyma
Text: One of the selected progeny (IGI-887J0; see FIG. 2 and accompanying text) was characterized physiologically.
Sensitivities of the mutants to various respiratory inhibitors including antimycin A, theonyltrifluoroacetine, sodium azide, hydrogen peroxide and sodium cyanide were examined. These inhibitors affect different regions of the respiratory chain.

[3] = tested on: P. rhodozyma; assay: Inhibitors incorporated into yeast malt extract medium: killing, growth and colony colour; details: for influence on pigmentation of P. rhodozyma: YM plates or liquid growth media; for killing of P. rhodozyma: incorporated into yeast malt extract medium agar
Text: The inventors also tried treating P. rhodozyma with several inhibitors of electron transport including thenoyltrifluoroacetone (TTFA), antimycin A, and sodium cyanide.

[4] = tested on: P. rhodozyma; assay: Morphological selection on agent-containing medium, colonies assayed for pigment
Text: More specifically, the inventors have discovered that by subjecting a naturally occurring or mutated strain of P. rhodozyma to growth in the presence of a metabolic pathway inhibitor, particularly a main respiratory pathway inhibitor, in the presence of an influence such as an agent or environmental condition which triggers a secondary respiratory pathway, or morphological selection using a selecting agent, and particularly an antibiotic, a cytochrome B inhibitor, or a terpenoid synthetic pathway inhibitor as a selecting agent, a directed and specific selection of highly pigmented P. rhodazyma takes place. For example, plating of the pink yeast, P. rhodozyma, to agar containing an antibiotic, a cytochrome B inhibitor, or a terpenoid synthetic pathway inhibitor gave rise to colonies of unusual morphology characterized by a nonpigmented lower smooth surface that developed highly pigmented vertical papillae after 1 to 2 months.
The sequence of mutations and selections with which the highest astaxanthin yielding strains to date have been produced is shown in FIG. 2. With reference to FIG. 2, the naturally occurring parent 67-385, obtained from the American Type Culture Collection ATCC No. 24230, was assayed as containing 200-600 μg/g dry weight of yeast in 6 day growth. 67-385 was subjected to antimycin selection, and higher pigmented progeny, referred to as 10′-887J0 were obtained. The first mutant papillus dissected from the basal colony contained approx. 700 μg total carotenoid/g yeast compared to the parental strain which had 300 to 400 μg/g. 10′-887J0 was assayed to have an astaxanthin content of 960 μg/g dry weight of yeast in 6 day growth. 10′-887J0 was replated to YM agar containing 50 μM antimycin and second generation antimycin colonies were selected. One of these produced 1200 μg/g and another produced 1450 μg/g. […]
After harvest from 30 ml growth medium, the cells are washed in water and resuspended in 30 ml of water. The optical density is measured to determine growth. […]

Question: For `Cc1ncc[nH]1` [2-methylimidazole], which “color of the colonies” value [1] is on record?
Answer: did visually change the color of the colonies

Question: What about the growth [1] of the same molecule?
Answer: did not impair growth

Question: Which “sensitivity of the antimycin mutants compared with parental strain” value ([2]; antimycin-isolated mutants) does the source give for `O=C(CC(=O)C(F)(F)F)c1cccs1` [TTFA, thenoyltrifluoroacetone] here?
Answer: quite sensitive

Question: And the “sensitivity of mutant compared with natural isolate” value ([2]; strain IGI-887J0)?
Answer: increased sensitivities

Question: And the “influence on pigmentation of P. rhodozyma” value [3]?
Answer: do not seem to significantly influence pigmentation

Question: And the “killing of naturally occurring P. rhodozyma by inhibitors of electron transport” value ([3]; naturally occurring P. rhodozyma)?
Answer: substantially killed by low concentrations

Question: With `[N-]=[N+]=[N-].[Na+]` [azide, sodium azide] as the molecule, how does the “sensitivity of mutant compared with natural isolate” value [2] read?
Answer: did not differ

Question: What about the “sensitivity of the antimycin mutants compared with parental strain” value [2] of the same molecule?
Answer: did not differ in sensitivity

Question: And the “killing of naturally occurring P. rhodozyma by inhibitors of electron transport” value [3]?
Answer: relatively insensitive

Question: What does the source list for `OO` [hydrogen peroxide]?
Answer: sensitivity of mutant compared with natural isolate [2]: more sensitive to killing; sensitivity of the antimycin mutants compared with parental strain [2]: quite sensitive

Question: How did the “color of the colonies” value [3] turn out when `c1c[nH]cn1` [imidazole] was run?
Answer: did visually change the color of the colonies

Question: And the growth [3]?
Answer: did not impair growth

Question: With `CC(=O)N1CCN(c2ccc(OCC3COC(Cn4ccnc4)(c4ccc(Cl)cc4Cl)O3)cc2)CC1` (centres unmarked) [ketoconazole] as the molecule, how does the “killing of P. rhodozyma” value [3] read?
Answer: significant killing

Question: `C[C@@]1(O)CCOC(=O)C1` [mevalonic acid lactone] was tested. Which “pigment of resistant mutant” value ([4]; 25 mM mevalonic acid lactone resistant mutant of NTG-mutagenized ATCC 24202, control 275 μg/g) did it give?
Answer: 540 µg/g

Question: For `Clc1ccc(COC(Cn2ccnc2)c2ccc(Cl)cc2Cl)c(Cl)c1` (centres unmarked) [miconazole], which “killing of P. rhodozyma” value [3] is on record?
Answer: significant killing

Question: Which results are given for `C1COCCN1` [morpholine]?
Answer: color of the colonies [3]: did visually change the color of the colonies; growth [3]: did not impair growth

Question: Which results are given for `CN1CCCC1c1cccnc1` (centres unmarked) [nicotine]?
Answer: color of the colonies [1]: did visually change the color of the colonies; growth [1]: did not impair growth

Question: How did the “pigment of highest mutant” value ([4]; mutant of ATCC 24202 from 3 and 5 μg/ml nystatin, control 270 μg/g) turn out when `C[C@@H]1[C@H](O)[C@@H](C)/C=C/C=C/CC/C=C/C=C/C=C/C=C/C(O[C@H]2O[C@H](C)[C@@H](O)[C@H](N)[C@@H]2O)CC2O[C@](O)(CC(O)C(O)CCC(O)CC(O)CC(O)CC(=O)O[C@H]1C)CC(O)C2C(=O)O` (some centres unmarked) [nystatin] was run?
Answer: 400 µg/g

Question: With `C=C(C)[C@H]1Cc2c(ccc3c2O[C@@H]2COc4cc(OC)c(OC)cc4[C@@H]2C3=O)O1` [rotenone] as the molecule, how does the “influence on pigmentation of P. rhodozyma” value [3] read?
Answer: do not seem to significantly influence pigmentation

Question: With tunicamycin as the molecule, how does the “pigment of resistant mutant” value ([4]; 8 μg/ml tunicamycin resistant mutant of ATCC 24202, control 270 μg/g) read?
Answer: 610 µg/g
